The conditions of data set [1]: PAMPA, triplicate. For orientation: In PAMPA a lipid-coated filter parts donor from acceptor wells.
For data set [2], the target named is BuChE from equine serum (eqBuChE) (Equus caballus, UniProt P81908). Nature of the data set: biochemical. It counts as biochemical. Conditions: for IC50: mean ± SEM, triplicate independent experiments.
In data set [3] the target is T1, hMAO B (Homo sapiens, UniProt P27338).
T1 sequence (P27338 1-520): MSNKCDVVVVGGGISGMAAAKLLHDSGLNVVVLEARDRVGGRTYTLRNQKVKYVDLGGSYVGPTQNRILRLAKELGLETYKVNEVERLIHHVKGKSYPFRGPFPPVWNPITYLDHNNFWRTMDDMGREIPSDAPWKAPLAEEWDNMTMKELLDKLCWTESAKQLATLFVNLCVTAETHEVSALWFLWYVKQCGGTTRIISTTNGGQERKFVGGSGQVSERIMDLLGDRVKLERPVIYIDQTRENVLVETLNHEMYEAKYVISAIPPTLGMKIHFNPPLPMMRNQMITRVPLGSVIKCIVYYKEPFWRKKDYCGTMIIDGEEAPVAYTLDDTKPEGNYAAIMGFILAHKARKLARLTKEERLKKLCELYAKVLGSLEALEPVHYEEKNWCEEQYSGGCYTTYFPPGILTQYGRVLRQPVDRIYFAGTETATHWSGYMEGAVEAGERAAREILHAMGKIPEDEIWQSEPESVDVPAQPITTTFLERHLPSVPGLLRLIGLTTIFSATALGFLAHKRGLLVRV
Nature of the data set: Fluorometric MAO assay, hMAO B inhibition. Conditions: mean ± SEM of two independent experiments, read-out: hMAO B %Inh. at 1 µM. It counts as biochemical.

The target in data set [4] is T2, electric eel AChE (eeAChE) (Electrophorus electricus, UniProt O42275).
T2 construct: purchased Sigma–Aldrich (Steinheim, Germany)
Briefly: biochemical. The settings on record: for IC50: triplicate independent experiments.

Data set [5] concerns the target T3, human H3R (Homo sapiens, UniProt Q9Y5N1).
T3 construct: expressed in transfected cells; host or cells: HEK293

The target of data set [6] is T3, human H3R. Nature of the data set: [3H]Nα-methylhistamine radioligand binding assay in HEK293 cells stably expressing hH3R. As for the experimental part:
Final compounds were tested for their H3R affinity in a radioligand binding assay using [^3H]N^α-methylhistamine as radioligand in HEK293 cells stably expressing hH3R [25]. […] Affinity to hH3R stably expressed in HEK293 cells was evaluated in a radioligand binding assay as described previously. […] The radioactivity was counted in a MicroBeta Trilux counter (PerkinElmer). Data were fitted to a one-site curve-fitting equation with Prism 6 (GraphPad Software, San Diego, CA, USA) and Ki values were calculated from IC50 values (from at least three experiments performed in duplicates) according to the Cheng−Prusoff equation [52].

The subject of data set [7] is human BuChE. The settings on record: cited from earlier work.
Data set [8] has as its target hH3R. Conditions: cited from earlier work.
Data set [9] deals with human AChE. The settings on record: cited from earlier work.
The subject of data set [10] is human MAO B. The settings on record: cited from earlier work.
On the set-up of data set [11]: method as in PMID 32882609. Conditions: Figure 1; cited from earlier work.
In data set [12] the test system is hepatoma HepG2 cells. Briefly: Hepatotoxicity, MTS viability of HepG2 cells. Conditions: 72 h incubation, MTS.
Procedure: Doxorubicin (DX) at the concentration of 1 μM was used as the reference cytostatic drug.
A multifunctional reader EnSpire (PerkinElmer, Waltham, MA, USA) was used to measure the absorbance.
For data set [13], the system named is electric eel AChE. Details: method as in PMID 33991182, PMID 32882609, PMID 28832188, PMID 19222043, PMID 18396354. Conditions: Figure 2; read-out: electric eelAChE IC50; cited from earlier work.
The test system of data set [14] is equine BuChE. Details: method as in PMID 33991182, PMID 32882609, PMID 28832188, PMID 19222043, PMID 18396354. Conditions: Figure 2; read-out: equineBuChE IC50; cited from earlier work.
For data set [15], the system named is SH-SY5Y neuroblastoma cells. Nature of the data set: Neuroprotection against H2O2, LDH necrosis assay. The settings on record: 50 µM, 300 µM H2O2, 24 h. It is filed as cell-based.
Data set [16] has as its system SH-SY5Y neuroblastoma cells. Briefly: Neuroprotection against H2O2, MTS viability assay. The settings on record: 50 µM, 300 µM H2O2, 24 h. It is filed as cell-based. For orientation: Tetrazolium assays rely on reduction of a dye to a coloured formazan, in cell work by metabolically active cells.
[17] abbreviates: mean ± SEM, read-out: eeAChE IC50.
Where [18] appears, read: values marked *; mean [95% CI]; read-out: hH3R Ki; cited from earlier work.
Setting [19] is: read-out: hH3R Ki; values marked *; mean [95% CI]; cited from earlier work.
Where [20] appears, read: Figure 2, read-out: humanH3R Ki.
[21] abbreviates: Figure 2, read-out: humanAChE IC50.
The mark [22] stands for this setting: Figure 2, read-out: humanBuChE IC50.

Counter-ions that a name gives are not always drawn. Like-named read-outs stand apart in the source and are kept apart here.

T2 sequence (O42275 24-633): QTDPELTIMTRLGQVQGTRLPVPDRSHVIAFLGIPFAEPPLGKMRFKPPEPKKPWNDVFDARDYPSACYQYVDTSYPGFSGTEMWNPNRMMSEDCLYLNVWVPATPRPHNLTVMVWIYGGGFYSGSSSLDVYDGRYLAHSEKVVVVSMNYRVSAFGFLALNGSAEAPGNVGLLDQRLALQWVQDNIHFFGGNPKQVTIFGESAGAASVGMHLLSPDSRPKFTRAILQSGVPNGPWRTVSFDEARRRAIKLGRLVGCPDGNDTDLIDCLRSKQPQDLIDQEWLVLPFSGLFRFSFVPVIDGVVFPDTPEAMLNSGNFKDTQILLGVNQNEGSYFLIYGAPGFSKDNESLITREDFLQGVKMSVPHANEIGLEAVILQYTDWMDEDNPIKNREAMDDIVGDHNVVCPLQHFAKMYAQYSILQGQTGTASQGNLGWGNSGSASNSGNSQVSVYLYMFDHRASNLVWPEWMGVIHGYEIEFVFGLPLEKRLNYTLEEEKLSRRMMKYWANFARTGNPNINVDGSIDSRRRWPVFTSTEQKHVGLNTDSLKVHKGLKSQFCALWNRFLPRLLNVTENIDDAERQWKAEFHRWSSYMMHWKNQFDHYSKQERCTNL
BuChE from equine serum (eqBuChE), sequence (P81908 whole entry): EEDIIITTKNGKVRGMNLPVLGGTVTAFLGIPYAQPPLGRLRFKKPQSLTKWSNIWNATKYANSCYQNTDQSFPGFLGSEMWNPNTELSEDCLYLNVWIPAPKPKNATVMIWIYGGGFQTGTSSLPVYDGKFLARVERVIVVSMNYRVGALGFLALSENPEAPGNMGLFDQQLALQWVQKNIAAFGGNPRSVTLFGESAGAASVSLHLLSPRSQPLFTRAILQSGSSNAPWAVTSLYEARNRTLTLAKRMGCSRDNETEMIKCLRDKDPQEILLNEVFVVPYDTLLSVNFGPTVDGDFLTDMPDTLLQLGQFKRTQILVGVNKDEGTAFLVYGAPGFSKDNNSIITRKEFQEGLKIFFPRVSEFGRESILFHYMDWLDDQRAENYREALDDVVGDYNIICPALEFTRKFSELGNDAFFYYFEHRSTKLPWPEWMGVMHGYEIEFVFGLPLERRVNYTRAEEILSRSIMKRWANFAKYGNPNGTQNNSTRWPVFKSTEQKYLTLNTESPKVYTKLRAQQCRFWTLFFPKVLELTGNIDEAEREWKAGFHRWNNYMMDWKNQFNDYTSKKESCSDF
T3 sequence (Q9Y5N1 whole entry): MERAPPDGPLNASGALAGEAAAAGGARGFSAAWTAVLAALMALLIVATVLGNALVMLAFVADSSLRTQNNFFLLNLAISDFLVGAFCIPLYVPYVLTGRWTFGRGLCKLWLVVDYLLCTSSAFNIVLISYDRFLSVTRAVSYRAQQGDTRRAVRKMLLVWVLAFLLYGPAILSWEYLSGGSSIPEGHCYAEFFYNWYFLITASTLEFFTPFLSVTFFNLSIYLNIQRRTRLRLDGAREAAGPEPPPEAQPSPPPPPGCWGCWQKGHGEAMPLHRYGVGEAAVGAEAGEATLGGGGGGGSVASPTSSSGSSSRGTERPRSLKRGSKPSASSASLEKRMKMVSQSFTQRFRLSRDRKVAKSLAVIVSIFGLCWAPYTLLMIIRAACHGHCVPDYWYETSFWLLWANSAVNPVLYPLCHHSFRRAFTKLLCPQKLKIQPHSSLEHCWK

For `Cn1c(=O)c2c(ncn2C)n(C)c1=O` [Caffeine, reference compound], the “Pe ± SD” value in data set [1] was 15.1 ± 0.4 10^−6 cm/s.

As usually defined, the IC50 is the midpoint of a concentration-inhibition curve. In general, Ki refers to a dissociation constant, usually derived from enzyme kinetics or from competition with a known ligand. Regarding `O=C(c1ccccc1)c1cccc(OCCCCCCN2CCCCC2)c1` [Compound 8, Phenyl (3-((6-(piperidin-1-yl)hexyl)oxy)phenyl)methanone hydrogen oxalate], the IC50 in [2] came out at 2.1 ± 0.06 µM; in data set [4] (setting [17]), 3.63 ± 0.111 µM. Besides, the inhibition at 1 µM in data set [3] was determined as 15%. For the same compound, the Ki in data set [5] (setting [18]) is 0.076 µM.

In the case of `O=C(c1ccccc1)c1ccc(OCCCCCCN2CCCCC2)cc1` [Compound 9, Phenyl (4-((6-(piperidin-1-yl)hexyl)oxy)phenyl)methanone hydrogen oxalate], the results for the half-inhibitory concentration (IC50) in [2] and in [4] (setting [17]) were 1.78 ± 0.034 µM and 3.73 ± 0.085 µM, respectively. Also, the inhibition at 1 µM in data set [3] worked out at 9%. Also, the inhibition constant (Ki) in data set [5] (setting [18]) is 0.041 µM.

Take `CC1CCCN(CCCCCOc2ccc(C(=O)c3ccccc3)cc2)C1` (centres unmarked) [Compound 14, (4-((5-(3-Methylpiperidin-1-yl)pentyl)oxy)phenyl)(phenyl)methanone hydrogen oxalate]: the IC50 in [2] was found to be 3.78 ± 0.061 µM; in data set [4] (setting [17]), 3.18 ± 0.083 µM. Moreover, the inhibition at 1 µM in [3] was 9%. For the same compound, the inhibition constant (Ki) in data set [5] (setting [18]) was 0.04 µM.

Take `CC1CCCN(CCCCCCOc2cccc(C(=O)c3ccccc3)c2)C1` (centres unmarked) [Compound 18, (3-((6-(3-Methylpiperidin-1-yl)hexyl)oxy)phenyl)(phenyl)methanone hydrogen oxalate]: the IC50 in data set [2] is 2.9 ± 0.077 µM; in [4] (setting [17]), 2 ± 0.03 µM. For the same compound, the inhibition at 1 µM in data set [3] was found to be 27%. In data set [5] (setting [18]), the inhibition constant Ki was 0.11 µM.

Turning to `CC1CCCN(CCCCCCOc2ccc(C(=O)c3ccccc3)cc2)C1` (centres unmarked) [Compound 19, (4-((6-(3-Methylpiperidin-1-yl)hexyl)oxy)phenyl)(phenyl)methanone hydrogen oxalate], the values for the half-maximal inhibitory concentration (IC50) in [2] and in [4] (setting [17]) were 1.98 ± 0.034 µM and 2.11 ± 0.05 µM, respectively. The inhibition at 1 µM in [3] was 7%. Besides, the Ki in data set [5] (setting [18]) is 0.053 µM.

With `O=C(c1ccccc1)c1ccc(OCCCCCN2CCCCCC2)cc1` [Compound 28, (4-((5-(Azepan-1-yl)pentyl)oxy)phenyl)(phenyl)methanone hydrogen oxalate], the IC50 in data set [2] was 0.678 ± 0.007 µM; in [4] (eeAChE IC50, mean ± SEM), 4.63 ± 0.1 µM. Besides, the inhibition at 1 µM in data set [3] amounted to 29%. Moreover, in data set [5] (setting [19]), the Ki is 0.039 µM.

On to `O=C(c1ccc(F)cc1)c1ccc(OCCCCCN2CCCCCC2)cc1` [Compound 30, (4-Fluorophenyl) (4-((5-(azepan-1-yl)pentyl)oxy)phenyl)methanone hydrogen oxalate], for which the IC50 in data set [2] was determined as 0.224 ± 0.003 µM; in data set [4] (setting [17]), 1.11 ± 0.003 µM. Further, in data set [6], the affinity, expressed as Ki, was 0.013 µM. Further, in [3], the inhibition at 1 µM was 30%.

On to `O=C(O)C(=O)O.O=C(c1ccccc1)c1ccccc1OCCCCCCN1CCCCCC1` [Compound 31, (2-((6-(Azepan-1-yl)hexyl)oxy)phenyl)(phenyl)methanone hydrogen oxalate], for which, in data set [2], the “selectivity eqBuChE versus eeAChE” value was “selective eqBuChE inhibitors” and the concentration for half-maximal inhibition (IC50) worked out at 0.317 ± 0.003 µM. This compound also displayed a Ki in [6] of 0.162 µM. For the same compound, the inhibition at 1 µM in data set [3] stood at 5%. The inhibition at 10 µM in data set [4] (read-out: eeAChE % Inh. at 10 µM) worked out at 11%.

As to `O=C(c1ccccc1)c1cccc(OCCCCCCN2CCCCCC2)c1` [Compound 32, (3-((6-(Azepan-1-yl)hexyl)oxy)phenyl)(phenyl)methanone hydrogen oxalate], the results for the IC50 in data set [2] and in [4] (setting [17]) were 0.616 ± 0.002 µM and 1.55 ± 0.034 µM, respectively. Moreover, the inhibition at 1 µM in data set [3] was 17%. Besides, the Ki in data set [5] (setting [18]) is 0.07 µM.

On to `O=C(c1ccccc1)c1ccc(OCCCCCCN2CCCCCC2)cc1` [Compound 33, (4-((6-(Azepan-1-yl)hexyl)oxy)phenyl)(phenyl)methanone hydrogen oxalate], for which the concentration for half-maximal inhibition (IC50) in data set [2] was found to be 1.28 ± 0.038 µM; in [4] (setting [17]), 1.81 ± 0.038 µM. For the same compound, in data set [3], the inhibition at 1 µM is 23%. The Ki in [5] (setting [19]) is 0.041 µM.

On to `O=C(c1ccc(Cl)cc1)c1ccc(OCCCCCCN2CCCCCC2)cc1` [Compound 34, (4-Chlorophenyl)(4-((6-(azepan-1-yl)hexyl)oxy)phenyl)methanone hydrogen oxalate], for which the IC50 in data set [2] was 0.867 ± 0.002 µM; in [4] (setting [17]), 2.033 ± 0.018 µM. In [6], this compound came in with an inhibitory constant (Ki) of 0.133 µM. The inhibition at 1 µM in data set [3] was found to be 30%.

`O=C(c1ccc(F)cc1)c1ccc(OCCCCCCN2CCCCCC2)cc1` [Compound 35, (4-((6-(Azepan-1-yl)hexyl)oxy)phenyl)(4-fluorophenyl)methanone hydrogen oxalate]: the half-maximal inhibitory concentration (IC50) came out at 0.161 ± 0.004 µM in data set [2] and 1.654 ± 0.004 µM in data set [4] (setting [17]). Also, in [6], the affinity, expressed as Ki, was 0.035 µM. Besides, the inhibition at 1 µM in data set [3] is 24%.

For the compound `O=c1c2ccccc2oc2ccc(OCCCCCN3CCCCCC3)cc12` [Compound I], the IC50 in data set [7] (Figure 1, read-out: hBuChE IC50) is 1.28 µM; in data set [9] (Figure 1, read-out: hAChEI IC50) it was 0.39 µM; in [10] (Figure 1, read-out: hMAO B IC50) it was 0.78 µM. In addition, in data set [8] (Figure 1, read-out: hH3R Ki), the Ki was 0.17 µM. The in vivo activity entry in [11] is “significant memory-enhancing effect”.

In the case of `COc1cccc2c1C(=O)c1c(O)c3c(c(O)c1C2=O)C[C@@](O)(C(=O)CO)C[C@@H]3O[C@H]1C[C@H](N)[C@H](O)[C@H](C)O1` [Doxorubicin, reference compound], in data set [12], the “concentration decreasing HepG2 cell viability” value is at most 1 µM.

For `CCN(CC)Cc1cc2c(=O)c3c(O)cccc3oc2cc1OCC=C(C)C` [compound III], the half-inhibitory concentration (IC50) in [13] is 2.6 µM; in [14] it was 0.51 µM.

Regarding `O=c1c2ccccc2oc2ccc(OCCCCCCN3CCCCCC3)cc12` [compound II], the 50% inhibitory concentration (IC50) in [13] is 0.31 µM; in data set [14] it was 0.61 µM; in data set [10] (Figure 2, read-out: humanMAOB IC50) it was 0.39 µM. Also, the inhibition constant (Ki) in data set [8] (setting [20]) was 0.5 µM.

With `c1cc2c(cc1OCCCCCCN1CCCCC1)CN1CCCC1=N2` [compound IV], the Ki in data set [8] (setting [20]) was 0.11 µM. Moreover, the IC50 is 1.3 µM in data set [14] and 0.0391 µM in data set [9] (setting [21]).

`COc1ccc(C(=O)c2cccc(CN(C)Cc3ccccc3)c2)cc1OC` [compound V]: the half-maximal inhibitory concentration (IC50) in [7] (setting [22]) was 60.7 µM; in data set [9] (setting [21]), 0.46 µM.

Take `C[C@@H]1NCCc2cc(O)c(O)cc21` [salsolinol, reference compound]: the “effect on necrosis (LDH test)” value in data set [15] is listed as “lowered the number of necrotic cells to the control level”. For the same compound, the “effect on viability (MTS test)” value in data set [16] was “statistically significantly increased the number of living cells”.

With xanthostigmine, the figures for the IC50 in data set [7] (setting [22]) and in data set [9] (setting [21]) were 0.048 µM and 0.0003 µM, respectively.

(Values after article PMC9822066 (Molecules, 2022).)
